Drawing on the NIST ThermoML archive (doi:10.1016/j.tca.2018.11.010), this text covers thermal conductivity for one compound.

Numbers after ± are expanded uncertainties.

A short description of this data set: wn = mass fraction of the nth substance listed. Conditions: 298 K; 100 kPa; Liquid; Laser flash apparatus; w1 = 0.9.

With `CCCCCCCC/C=C\CCCCCCCC(=O)O` [(Z)-9-octadecenoic acid] + CCCCCCCCCCCCCC(=O)O, the thermal conductivity is recorded as 0.2513 ± 0.0057 W/m/K.
